The values below are quoted from earlier work in article PMC10326281, “Insights into the mechanisms governing P01 scorpion toxin effect against U87 glioblastoma cells oncogenesis” (Frontiers in Pharmacology, 2023).

Read-outs that look alike come from different tables or passages of the source. Bridges are numbered along the chain shown (N, C = ends). Where no end group is shown, it is not given here.

Series [1] has as its system hSK1 channel. The settings on record: ref Shah and Haylett, 2000, cited from earlier work. An excerpt:
This can be explained by the differential expression of either functional SK2 isoforms or other membrane receptors between HEK293 and Jurkat cells.

A further series has as its system rSK2 channel. The conditions noted are these: cited from earlier work. An excerpt:
(§1) Our team has initiated the fractionation of Aa scorpion venom, in order to identify scorpion peptides targeting potassium channels involved in the oncological process. Thus, we succeeded to isolate one peptide well represented in this venom. Based on its N-terminal sequence and its mass fingerprint this peptide corresponded to the P01 toxin, previously described by ([Zerrouk et al., 1996]).

The subject of series [2] is hSK1 channel. The conditions noted are these: 2000, cited from earlier work.
Excerpt: as §1

In the next series the test system is SK2 channel. The settings on record: HEK293 cells; ref Hosseini et al., 2001; cited from earlier work. The text has this:
(§2) Besides, it seems that the effect of P01 on U87 cell proliferation is not due only to its blocking activity of SK2 channels, but also by targeting a complex of membrane receptors and/or effectors expressed in U87 cells, including SK2. […] These authors noted that the concentrations necessary for blocking proliferation were higher than those necessary for blocking these ion ...

Series [3] relates to U87 cells. The settings on record: ref Abdullaev et al., 2010; cited from earlier work.
Excerpt: as §2

The next series has as its system IKCa/SK4 channel. The conditions noted are these: ref Wang, 2004; cited from earlier work. The text has this: (§3) Recently, the anticancer activities of some natural peptides/toxins attracted considerable attention in drug discovery and have been the object of several studies showing that they affect tumor growth, induce apoptosis and inhibit cancer metastasis and angiogenesis in vitro and in vivo ([Ding et al., 2014]; [Majc et al., 2022]). Several examples of the activity of these peptides/toxins as well as their effect on K^+ channels have been recently summarized in many reviews. Thes ...

The test system of series [4] is pancreatic cancer cell lines. The settings on record: ref Wang, 2004; cited from earlier work.
Excerpt: as §3

For a further series, the system named is BKCa channel. The settings on record: ref Wang, 2004; cited from earlier work.
Excerpt: as §3

Series [5] concerns endometrial cancer cell lines. The settings on record: ref Wang, 2004; cited from earlier work.
Excerpt: as §3

The subject of a further series is Kv1.3 potassium channel. The conditions noted are these: ref Wang, 2004; cited from earlier work. The text has this: Recently, the anticancer activities of some natural peptides/toxins attracted considerable attention in drug discovery and have been the object of several studies showing that they affect tumor growth, induce apoptosis and inhibit cancer metastasis and angiogenesis in vitro and in vivo ([Ding et al., 2014]; [Majc et al., 2022]). Several examples of the activity of these peptides/toxins as well as their effect on K^+ channels have been recently summarized in many reviews.

For the next series, the system named is integrins. The settings on record: tumor cell and angiogenic endothelial cell surface; ref Schmitmeier et al., 2005; cited from earlier work. The text has this: (§4) Thus, P01 and KAaH1 inhibited the U87 cell migration with different mechanisms. […] For instance, PIVL, a Kunitz-type serine protease inhibitor, from the venom of the Tunisian snake Macrovipera lebetina transmediterranea, re ...

In series [6] the test system is U87 cells. The settings on record: ref Pyrko et al., 2005, cited from earlier work.
Excerpt: as §4

With “apamin (CNCKAPETALCARRCQQH-NH2; disulfide 1-11, 3-15; ends not checked; UniProt P01500 28-45, looked up)”, the 50% inhibitory concentration (IC50) with hSK1 channel [1] (COS-7 cells) is 12 nM; in the series on hSK1 channel [1] (Xenopus oocytes), 0.1 nM; in the series on rSK2 channel (HEK 293 cells, ref Strobaek et al., 2000), 0.083 nM; with hSK1 channel [2] (HEK293 cells, ref Shah and Haylett) it was 8 nM; in the series on hSK1 channel [2] (HEK 293 cells, ref Strobaek et al.), 3.3 nM.
On to `c1ccc2c(c1)c1cc[n+]2CCCCC[n+]2ccc(c3ccccc32)NCCCCCN1` [UCL1848], for which the half-inhibitory concentration (IC50) in the series on SK2 channel is 0.12 nM. The “effect on U87 cell proliferation” value with U87 cells [3] was “no effect”.
For the compound charybdotoxin, the “block of IKCa/SK4” value in the series with IKCa/SK4 channel is recorded as “known blocker”. The “proliferation and cell cycle progression” value in series [4] was “inhibited proliferation and cell cycle progression”; in series [5], “inhibited proliferation and cell cycle progression”. In addition, the “block of BKCa” value in the series on BKCa channel is “known blocker”. Further, in the series on Kv1.3 potassium channel, the “block of Kv1.3” value is reported as “known blocker”.
As for “leiurotoxin I: first toxin isolated from Leiurus quintestriatus scorpin (AFCNLRMCQLSCRSLGLLGKCIGDKCECVKH-NH2; disulfide 12-28, 3-21, 8-26; ends not checked; UniProt P16341 1-31, looked up)”, the IC50 in the series with rSK2 channel (HEK293 cells, ref Hosseini et al., 2001) is 0.28 nM.
Consider contortrostatin, for which the integrin binding entry in the series on integrins was “specifically binds to certain integrins”. For the same compound, the survival result in the series with U87 cells [6] (rodent glioma model) is “prolongation of survival”. For the same compound, in the series with U87 cells [6] (tumor induced by stereotactic injection of U87 cells), the tumor progression entry was “inhibited the tumor (induced by the stereotactically injection of U87 cells) progression”.
